Where two headings read alike, the source gives them in different places. Oligonucleotides are written 5' to 3', each unit as a sugar letter and its base; * is a phosphorothioate linkage, no mark a phosphodiester; rarer units and linkages stand in square brackets, end groups in braces. Plain capitals give the bases only. l = locked nucleic acid (LNA); d = 2'-deoxy (DNA)
Key:
FXN mRNA = FXN mRNA expression by quantitative PCR in FRDA patient-derived fibroblast cells; format: cell-based, human; details: GM03816 cells, 5 μM, averaged quadruplicate experiments (FIG. 2B)
Description: Tissue culture and transfection of synthetic nucleic acids. Fibroblast cells (Coriell Institute, GM03816 and GM02513) were cultured in minimum essential medium (MEM) supplemented with 10% FBS and 1% NEAA. All cells were grown at 37° C. in 5% Co2. Lipofectamine RNAiMAX (Invitrogen) was used to transfect siRNAs or LNA following the manufacturer's recommended protocol in OptiMEM low serum medium (Invitrogen). Growth media was changed to full medium after 24 h. Transfected cells were harvested 72 h after transfection for RNA extraction and qPCR analyses, and 96 h after transfection for western blot analysis. Sequences of siRNAs and RNAs used in these studies are listed in Table S1 and Table S2, respectively. Quantitative PCR. Identical volumes of RNA (representing approximately the same number of cells and ranging from 1-2 μg of RNA) were treated with 2 units of DNase I (Worthington) in DNase I buffer (10 mM Tris-HCl, pH 7.0, 10 mM NaCl, 2 mM MgCl2, 0.5 mM CaCl2)) for 15 min at room temperature to degrade any genomic DNA contamination. Afterwards, DNase I heat-inactivated at 75° C. for 10 min. Treated RNAs were reverse-transcribed using the High Capacity cDNA Reverse Transcription Kit (Applied Biosystems). Quantitative PCR (qPCR) was performed using SYBR Supermix (Biorad) with ˜50 ng of cDNA as template. Data were normalized relative to measured HPRT levels. […]

[1] = test system: histone H3 and H4 acetylation, FXN mRNA and protein; details: lymphoid cells or primary lymphocytes; cited from earlier work
FXN protein = FXN protein expression by western blot in FRDA patient-derived fibroblast cells; format: cell-based, human; details: GM03816 cells; for FXN protein expression, LNAs: 12.5 nM, day 4 (FIGS. 4B-E)
Description: (§1) Tissue culture and transfection of synthetic nucleic acids. Fibroblast cells (Coriell Institute, GM03816 and GM02513) were cultured in minimum essential medium (MEM) supplemented with 10% FBS and 1% NEAA. All cells were grown at 37° C. in 5% Co2. Lipofectamine RNAiMAX (Invitrogen) was used to transfect siRNAs or LNA following the manufacturer's recommended protocol in OptiMEM low serum medium (Invitrogen). Growth media was changed to full medium after 24 h. Transfected cells were harvested 72 h after transfection for RNA extraction and qPCR analyses, and 96 h after transfection for western blot analysis. Sequences of siRNAs and RNAs used in these studies are listed in Table S1 and Table S2, respectively.
Western blot analysis. Cell extracts were prepared using lysis buffer supplemented with 1% Protease Inhibitor Cocktail Set I (Calbiochem) as described previously (Punga & Buhler, 2010). Protein was separated on 4-20% gradient or 15% SDS-PAGE TGX pre-cast gels (BioRad). After gel electrophoresis, proteins were transferred to nitrocellulose membrane (Hybond-C Extra, GE Healthcare Life Sciences) at 100 V for 45-60 min. Membranes were blocked for 30 min at room temperature with 5% milk protein in PBS+0.05% TWEEN-20 (PBST).
Blocked membranes were incubated with the primary antibodies at 4° C. in PBST and 5% milk with rocking overnight: anti-FXN at 1:300 (Abcam, ab110328), anti-tubulin at 1:6000-10000 (Sigma-Aldrich, T5201). After primary antibody incubation, membranes were washed 3 times for 5 min at room temperature with PBST then incubated for 30-45 min at room temperature with HRP-conjugated anti-mouse (Jackson Laboratories, 715-035-150) in PBST+5% milk. Membranes were washed again 3× for 15 min in PBST at room temperature, then protein bands visualized using SuperSignal West Pico Chemiluminescent Substrate (Thermo Scientific). For quantification of protein levels from Western blots of cellular fractions, films were scanned and bands quantified using ImageJ.
HDAC inhibitor and mRNA stability assay. Histone deacetylase inhibitor BML-210 (Abcam) (5 μM) was applied to FRDA fibroblast cells (GM03816) by following the procedure described in Herman et al (2006)^27. Cells were collected for qPCR and Western blot analyses as mentioned above. For mRNA stability assay, cells were transfected with siGAA or CM as above, and 5 μg/mL actinomycin D (Sigma) was added with fresh media 3 day after transfection, and cells were collected at the indicated time points for RNA extraction and qPCR analysis.

frataxin protein = details: patients, daily oral administration, cited from earlier work
Tm of siRNA duplex = format: physicochemical
FXN = FXN expression in FRDA patient-derived cells, mRNA or protein not specified; format: cell-based, human; details: GM03816 cells, 25 nM (FIG. 3B)
Description: as §1

[2] = test system: interferon responsive genes; assay: qPCR of interferon responsive genes (off-target); format: cell-based, human; details: GM03816 cells, 25 nM, 3 days after transfection, compared with CM control
Description: as §1
Quantitative PCR. Identical volumes of RNA (representing approximately the same number of cells and ranging from 1-2 μg of RNA) were treated with 2 units of DNase I (Worthington) in DNase I buffer (10 mM Tris-HCl, pH 7.0, 10 mM NaCl, 2 mM MgCl2, 0.5 mM CaCl2)) for 15 min at room temperature to degrade any genomic DNA contamination. Afterwards, DNase I heat-inactivated at 75° C. for 10 min. Treated RNAs were reverse-transcribed using the High Capacity cDNA Reverse Transcription Kit (Applied Biosystems). Quantitative PCR (qPCR) was performed using SYBR Supermix (Biorad) with ˜50 ng of cDNA as template. Data were normalized relative to measured HPRT levels.

What does the source list for `Nc1ccccc1NC(=O)CCCCCCC(=O)Nc1ccccc1` [BML210]?
FXN mRNA levels (FXN mRNA): did not reveal a significant increase; Acetylation of histone H3 and H4 and FXN mRNA and protein [1]: increased acetylation of histone H3 and H4 leading to upregulation of FXN mRNA and protein; FXN protein levels (FXN protein; 5 μM, averaged quadruplicate experiments (FIG. 2C)): did not reveal a significant increase

For `NC(=O)c1cccnc1` [nicotinamide], which “Increase of frataxin protein concentration” value (frataxin protein; 3.8 g) is on record?
Its value is 1.5 times.

What about the “Increase of frataxin protein concentration” value (frataxin protein; 7-5 g) of the same molecule?
The value was “doubling”.

With “PS-LNA11: LNA with PS backbone complementary to antisense RNA, GAAGAAGAAGAAGAAGAAG (SEQ ID NO: 33) (dG*lA*lA*dG*lA*lA*dG*lA*lA*dG*lA*lA*dG*lA*lA*dG*lA*lA*dG)” as the molecule, how does the “FXN protein expression, LNAs” value (FXN protein) read?
The value was “inert”.

For “PS-LNA12: LNA with PS backbone complementary to antisense RNA, AAGAAGAAGAAGAAGAAGA (SEQ ID NO: 34) (dA*dA*lG*dA*dA*lG*dA*dA*lG*dA*dA*lG*dA*dA*lG*dA*dA*lG*dA)”, which “FXN protein expression, LNAs” value (FXN protein) is on record?
Its value is “inert”.

Which “FXN protein expression, LNAs” value (FXN protein) does the source give for “PS-LNA13: LNA with PS backbone complementary to antisense RNA, AGAAGAAGAAGAAGAAGAA (SEQ ID NO: 35) (lA*dG*lA*lA*dG*lA*lA*dG*lA*lA*dG*lA*lA*dG*lA*lA*dG*lA*lA)” here?
Its value is “inert”.

Which Tm for duplex (Tm of siRNA duplex) does the source give for “scramble: duplex RNA in which the sequences of siGAA and siAAG are mixed: ss GAGAAAGAGAAAAGGAAAGdTdT (SEQ ID NO: 15), as SEQ ID NO: 16 (sense GAGAAAGAGAAAAGGAAAGNN; antisense CUUUCCUUUUCUCUUUCUCNN; dTdT overhangs; modified_base (20)..(21) n = thymidine; (20)..(21) n is a, c, g, t or u) [reference compound]” here?
The Tm for duplex was 66.13 ^+C.

For “siAAG5mm: similar to siAAG but has five mismatches: ss AACAATAATACGCAGAAGAdTdT (SEQ ID NO: 17), as SEQ ID NO: 18 (sense AACAATAATACGCAGAAGANN; antisense UCUUCUGCGUAUUAUUGUUNN; dTdT overhangs; modified_base (20)..(21) n = thymidine; (20)..(21) n is a, c, g, t or u) [reference compound]”, which Tm for duplex (Tm of siRNA duplex) is on record?
Its Tm for duplex is 63.24 ^+C.

Which Tm for duplex (Tm of siRNA duplex) does the source give for “siAAG: duplex RNA: ss AAGAAGAAGAAGAAGAAGAdTdT (SEQ ID NO: 2), as UCUUCUUCUUCUUCUUCUUdTdT (SEQ ID NO: 10) (sense AAGAAGAAGAAGAAGAAGANN; antisense UCUUCUUCUUCUUCUUCUUNN; dTdT overhangs; modified_base (20)..(21) n = thymidine; (20)..(21) n is a, c, g, t or u)” here?
The Tm for duplex was 64.67 ^+C.

For “siAGA: duplex RNA: ss AGAAGAAGAAGAAGAAGAAdTdT (SEQ ID NO: 11), as UUCUUCUUCUUCUUCUUCUdTdT (SEQ ID NO: 12) (sense AGAAGAAGAAGAAGAAGAANN; antisense UUCUUCUUCUUCUUCUUCUNN; dTdT overhangs; modified_base (20)..(21) n = thymidine; (20)..(21) n is a, c, g, t or u)”, which Tm for duplex (Tm of siRNA duplex) is on record?
The Tm for duplex was 64.3 ^+C.

Which Tm for duplex (Tm of siRNA duplex) does the source give for “siExon2: duplex siRNA that targets FXN exon: ss GAGUGUCUAUUUGAUGAAUdTdT (SEQ ID NO: 13), as SEQ ID NO: 14 (sense GAGUGUCUAUUUGAUGAAUNN; antisense AUUCAUCAAAUAGACACUCNN; dTdT overhangs; modified_base (20)..(21) n = thymidine; (20)..(21) n is a, c, g, t or u) [reference compound]” here?
The Tm for duplex was 64.53 ^+C.

With “siExon3: positive control for transfection efficiency targeting exon 3 of FXN: ss GACCACCUAUGAAAGACUAdTdT (SEQ ID NO: 21), as SEQ ID NO: 22 (sense GACCACCUAUGAAAGACUANN; antisense UAGUCUUUCAUAGGUGGUCNN; dTdT overhangs; modified_base (20)..(21) n = thymidine; (20)..(21) n is a, c, g, t or u) [reference compound]” as the molecule, how does the Tm for duplex (Tm of siRNA duplex) read?
Its Tm for duplex is 73.65 ^+C.

What does the source list for “siGAA9,10mm: anti-GAA duplex RNA with central mismatches on both strands: ss GAAGAAGAUCAAGAAGAAGdTdT (SEQ ID NO: 19), as CUUCUUCUUAGUCUUCUUCdTdT (SEQ ID NO: 20) (sense GAAGAAGAUCAAGAAGAAGNN; antisense CUUCUUCUUAGUCUUCUUCDTDT; dTdT overhangs; modified_base (20)..(21) n = thymidine; (20)..(21) n is a, c, g, t or u)”?
Activation of FXN expression by duplex with central mismatches (FXN; listed as siGAA 9.10 mm): activates FXN expression at a level similar to the analogous fully complementary duplex RNA; Activation of FXN expression by duplex with central mismatches (FXN; listed as siGAA9.10 mm): activated FXN expression as well as fully complementary duplexes siGAA or siAAG; Tm for duplex (Tm of siRNA duplex): 54.4 ^+C

With “siGAA: duplex RNA: ss GAAGAAGAAGAAGAAGAAGdTdT (SEQ ID NO: 1), as CUUCUUCUUCUUCUUCUUCdTdT (SEQ ID NO: 9) (sense GAAGAAGAAGAAGAAGAAGNN; antisense CUUCUUCUUCUUCUUCUUCNN; dTdT overhangs; modified_base (20)..(21) n = thymidine; (20)..(21) n is a, c, g, t or u)” as the molecule, how does the Tm for duplex (Tm of siRNA duplex) read?
The Tm for duplex was 65.64 ^+C.

And the “FXN protein expression (dose response profile)” value (FXN protein; day 4 (FIG. 1F))?
Its value is “upregulation of FXN protein expression”.

What about the “mRNA expression of interferon responsive genes” value [2] of the same molecule?
The value was “does not induce expression of interferon responsive genes”.
